Assay results taken from ChEMBL document CHEMBL1201862, “PubChem BioAssay data set” (2004).
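Cultured in 96-well plates, cells were exposed to test compound for 48 hours across five concentrations. GI50 = concentration required for 50% inhibition of growth.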 The source made the active and inactive calls. Cut-off read from the data, not from the text of the source: active = GI50 up to about 1.1 µM and inactive = higher.

Legend:
Experiment in all cases: NCI-60 cell line screen, 48 h
UACC-62 = tested on: UACC-62
OVCAR-5 = tested on: OVCAR-5
K562 = tested on: K562
SF-295 = tested on: SF-295
CCRF-CEM = tested on: CCRF-CEM
CAKI-1 = tested on: CAKI-1
LOX IMVI = tested on: LOX IMVI
LXFL 529 = tested on: LXFL 529
ACHN = tested on: ACHN
EKVX = tested on: EKVX
M19-MEL = tested on: M19-MEL
A498 = tested on: A498
HOP-62 = tested on: HOP-62
SNB-78 = tested on: SNB-78
NCI-H23 = tested on: NCI-H23
A549 = tested on: A549
KM-20L2 = tested on: KM-20L2
OVCAR-8 = tested on: OVCAR-8
HT-29 = tested on: HT-29
OVCAR-4 = tested on: OVCAR-4
SNB-75 = tested on: SNB-75
Malme-3M = tested on: Malme-3M
COLO 205 = tested on: COLO 205
SK-MEL-2 = tested on: SK-MEL-2
SF-268 = tested on: SF-268
OVCAR-3 = tested on: OVCAR-3
786-0 = tested on: 786-0
IGROV-1 = tested on: IGROV-1
HL-60 = tested on: HL-60
SK-OV-3 = tested on: SK-OV-3
NCI-H226 = tested on: NCI-H226
HCT-116 = tested on: HCT-116
MOLT-4 = tested on: MOLT-4
RPMI-8226 = tested on: RPMI-8226
RXF 393 = tested on: RXF 393
KM12 = tested on: KM12
U-251 = tested on: U-251
M14 = tested on: M14
SNB-19 = tested on: SNB-19
SN12C = tested on: SN12C
RXF 631 = tested on: RXF 631
TK-10 = tested on: TK-10
NCI-H460 = tested on: NCI-H460
DLD-1 = tested on: DLD-1
UO-31 = tested on: UO-31
HCC 2998 = tested on: HCC 2998
NCI-H522 = tested on: NCI-H522
DMS-273 = tested on: DMS-273
DMS-114 = tested on: DMS-114
HCT-15 = tested on: HCT-15
SK-MEL-5 = tested on: SK-MEL-5
SW-620 = tested on: SW-620
SF-539 = tested on: SF-539
UACC-257 = tested on: UACC-257
HOP-18 = tested on: HOP-18
SK-MEL-28 = tested on: SK-MEL-28
SR = tested on: SR
HOP-92 = tested on: HOP-92
XF498 = tested on: XF498

CCOC(=O)/C(=C\c1ccc(N(CCC#N)CCC#N)cc1)NC(=O)c1cc([N+](=O)[O-])ccc1Cl
GI50 (UACC-62): > 100 µM (inactive) | GI50 (OVCAR-5): > 100 µM (inactive) | GI50 (K562): > 100 µM (inactive) | GI50 (SF-295): > 100 µM (inactive) | GI50 (CCRF-CEM): 55.1 µM (inactive) | GI50 (CAKI-1): > 100 µM (inactive) | GI50 (LOX IMVI): 69 µM (inactive) | GI50 (LXFL 529): > 100 µM (inactive) | GI50 (ACHN): > 100 µM (inactive) | GI50 (EKVX): > 100 µM (inactive) | GI50 (M19-MEL): > 100 µM (inactive) | GI50 (A498): > 100 µM (inactive) | GI50 (HOP-62): > 100 µM (inactive) | GI50 (SNB-78): > 100 µM (inactive) | GI50 (NCI-H23): > 100 µM (inactive) | GI50 (A549): > 100 µM (inactive) | GI50 (KM-20L2): > 100 µM (inactive) | GI50 (OVCAR-8): > 100 µM (inactive) | GI50 (HT-29): > 100 µM (inactive) | GI50 (OVCAR-4): > 100 µM (inactive) | GI50 (SNB-75): > 100 µM (inactive) | GI50 (Malme-3M): > 100 µM (inactive) | GI50 (COLO 205): > 100 µM (inactive) | GI50 (SK-MEL-2): > 100 µM (inactive) | GI50 (SF-268): > 100 µM (inactive) | GI50 (OVCAR-3): 63.4 µM (inactive) | GI50 (786-0): > 100 µM (inactive) | GI50 (IGROV-1): > 100 µM (inactive) | GI50 (HL-60): > 100 µM (inactive) | GI50 (SK-OV-3): > 100 µM (inactive) | GI50 (NCI-H226): > 100 µM (inactive) | GI50 (HCT-116): > 100 µM (inactive) | GI50 (MOLT-4): 72.6 µM (inactive) | GI50 (RPMI-8226): 56.6 µM (inactive) | GI50 (RXF 393): > 100 µM (inactive) | GI50 (KM12): > 100 µM (inactive) | GI50 (U-251): > 100 µM (inactive) | GI50 (M14): > 100 µM (inactive) | GI50 (SNB-19): > 100 µM (inactive) | GI50 (SN12C): > 100 µM (inactive) | GI50 (RXF 631): > 100 µM (inactive) | GI50 (TK-10): > 100 µM (inactive) | GI50 (NCI-H460): > 100 µM (inactive) | GI50 (DLD-1): > 100 µM (inactive) | GI50 (UO-31): 69 µM (inactive) | GI50 (HCC 2998): > 100 µM (inactive) | GI50 (NCI-H522): 56.1 µM (inactive) | GI50 (DMS-273): > 100 µM (inactive) | GI50 (DMS-114): > 100 µM (inactive) | GI50 (HCT-15): > 100 µM | GI50 (SK-MEL-5): > 100 µM (inactive) | GI50 (SW-620): > 100 µM (inactive) | GI50 (SF-539): > 100 µM (inactive) | GI50 (UACC-257): > 100 µM (inactive) | GI50 (HOP-18): > 100 µM (inactive) | GI50 (SK-MEL-28): > 100 µM (inactive)

Cc1cc([N+](=O)[O-])ccc1Nc1cccc(Cl)c1C
GI50 (UACC-62): 12.6 µM (inactive) | GI50 (OVCAR-5): 14.7 µM (inactive) | GI50 (K562): 11.3 µM (inactive) | GI50 (SF-295): 18.9 µM (inactive) | GI50 (CCRF-CEM): 16.5 µM (inactive) | GI50 (CAKI-1): 11.6 µM (inactive) | GI50 (LOX IMVI): 17.3 µM (inactive) | GI50 (LXFL 529): 14.4 µM (inactive) | GI50 (ACHN): 17.8 µM (inactive) | GI50 (EKVX): 20 µM (inactive) | GI50 (M19-MEL): 16.5 µM (inactive) | GI50 (A498): 15.3 µM (inactive) | GI50 (HOP-62): 14.7 µM (inactive) | GI50 (NCI-H23): 17.1 µM (inactive) | GI50 (A549): 16.6 µM (inactive) | GI50 (KM-20L2): 14 µM (inactive) | GI50 (OVCAR-8): 15.1 µM (inactive) | GI50 (HT-29): 17.6 µM (inactive) | GI50 (OVCAR-4): 16.5 µM (inactive) | GI50 (SR): 14.7 µM (inactive) | GI50 (SNB-75): 19.2 µM (inactive) | GI50 (Malme-3M): 15.2 µM (inactive) | GI50 (COLO 205): 17 µM (inactive) | GI50 (SK-MEL-2): 14.9 µM (inactive) | GI50 (SF-268): 17 µM (inactive) | GI50 (OVCAR-3): 13.7 µM (inactive) | GI50 (786-0): 14 µM (inactive) | GI50 (IGROV-1): 13.6 µM (inactive) | GI50 (HL-60): 18.2 µM (inactive) | GI50 (SK-OV-3): 24.3 µM (inactive) | GI50 (NCI-H226): 18.9 µM (inactive) | GI50 (HCT-116): 16.1 µM (inactive) | GI50 (MOLT-4): 14.8 µM (inactive) | GI50 (RXF 393): 17.7 µM (inactive) | GI50 (KM12): 16 µM (inactive) | GI50 (U-251): 16.3 µM (inactive) | GI50 (M14): 15.5 µM (inactive) | GI50 (SNB-19): 19.1 µM (inactive) | GI50 (SN12C): 16.7 µM (inactive) | GI50 (RXF 631): 16.2 µM (inactive) | GI50 (TK-10): 14.8 µM (inactive) | GI50 (DLD-1): 14.6 µM (inactive) | GI50 (UO-31): 11.7 µM (inactive) | GI50 (HCC 2998): 18.3 µM (inactive) | GI50 (NCI-H522): 16.1 µM (inactive) | GI50 (DMS-273): 14.6 µM (inactive) | GI50 (DMS-114): 13.5 µM (inactive) | GI50 (HCT-15): 16.8 µM | GI50 (SK-MEL-5): 15.6 µM (inactive) | GI50 (SW-620): 24.3 µM (inactive) | GI50 (UACC-257): 18 µM (inactive) | GI50 (HOP-18): 14 µM (inactive) | GI50 (SK-MEL-28): 16.7 µM (inactive)

COC(=O)C1C=CCON2CCc3c(n(C)c4ccccc34)C12 (centres undefined)
GI50 (OVCAR-5): > 100 µM (inactive) | GI50 (K562): > 100 µM (inactive) | GI50 (SF-295): > 100 µM (inactive) | GI50 (CCRF-CEM): > 100 µM (inactive) | GI50 (CAKI-1): > 100 µM (inactive) | GI50 (LOX IMVI): > 100 µM (inactive) | GI50 (LXFL 529): > 100 µM (inactive) | GI50 (ACHN): > 100 µM (inactive) | GI50 (EKVX): 92.3 µM (inactive) | GI50 (M19-MEL): > 100 µM (inactive) | GI50 (A498): 46.6 µM (inactive) | GI50 (HOP-62): > 100 µM (inactive) | GI50 (SNB-78): > 100 µM (inactive) | GI50 (NCI-H23): > 100 µM (inactive) | GI50 (A549): > 100 µM (inactive) | GI50 (KM-20L2): > 100 µM (inactive) | GI50 (HT-29): > 100 µM (inactive) | GI50 (OVCAR-4): > 100 µM (inactive) | GI50 (SR): > 100 µM (inactive) | GI50 (SNB-75): 88.1 µM (inactive) | GI50 (Malme-3M): > 100 µM (inactive) | GI50 (COLO 205): > 100 µM (inactive) | GI50 (SK-MEL-2): > 100 µM (inactive) | GI50 (SF-268): > 100 µM (inactive) | GI50 (OVCAR-3): > 100 µM (inactive) | GI50 (786-0): > 100 µM (inactive) | GI50 (IGROV-1): > 100 µM (inactive) | GI50 (HL-60): > 100 µM (inactive) | GI50 (SK-OV-3): > 100 µM (inactive) | GI50 (NCI-H226): > 100 µM (inactive) | GI50 (HCT-116): > 100 µM (inactive) | GI50 (MOLT-4): > 100 µM (inactive) | GI50 (RPMI-8226): > 100 µM (inactive) | GI50 (RXF 393): > 100 µM (inactive) | GI50 (KM12): > 100 µM (inactive) | GI50 (U-251): > 100 µM (inactive) | GI50 (M14): > 100 µM (inactive) | GI50 (SNB-19): > 100 µM (inactive) | GI50 (HOP-92): > 100 µM (inactive) | GI50 (SN12C): > 100 µM (inactive) | GI50 (RXF 631): > 100 µM (inactive) | GI50 (TK-10): > 100 µM (inactive) | GI50 (NCI-H460): > 100 µM (inactive) | GI50 (DLD-1): > 100 µM (inactive) | GI50 (UO-31): > 100 µM (inactive) | GI50 (XF498): 42.1 µM (inactive) | GI50 (HCC 2998): > 100 µM (inactive) | GI50 (NCI-H522): > 100 µM (inactive) | GI50 (DMS-273): > 100 µM (inactive) | GI50 (DMS-114): > 100 µM (inactive) | GI50 (HCT-15): > 100 µM | GI50 (SK-MEL-5): > 100 µM (inactive) | GI50 (SW-620): > 100 µM (inactive) | GI50 (SF-539): > 100 µM (inactive) | GI50 (SK-MEL-28): > 100 µM (inactive)
